Measured values from ChEMBL document CHEMBL5729714, “Indazoles as hematopoietic progenitor kinase 1 (HPK1) inhibitors and methods using same” (2023).

molecular target: Mitogen-activated protein kinase kinase kinase kinase 1 (Homo sapiens, UniProt Q92918); assay: ADP-Glo kinase assay: HPK1 kinase activity was measured by Promega's ADP-Glo™ kinase assay. In this assay, 5 ng of recombinant human HPK1 (signalchem) is incubated with 5 μL of compounds (0.5% DMSO), 5 μL of MBP (0.5 μg/μl) and 5 μL of ATP (25 μM) in buffer (40 mM Tris, 7.5; 20 mM MgCl2; 0.1 mg/ml BSA; 5 μM DTT). The assay was started by incubating the reaction mixture in a 96-well plate at 30′ C for 40 minutes. After the incubation, 25 uL ADP-Glo reagent was added and the reaction was incubated at room temperature for 40-min to stop the reaction and degrade residual ATP. The ADP product was then converted to ATP by adding 50 uL per well of detection reagent. Luminescence was detected after 30-min room temperature incubation with the Molecular device I3X plate reader. The IC50 values were calculated from a series of percent inhibition values determined at a range of inhibitor concentration using software routines as implemented in the GraphPad Prism 7 software and SigmaPlot13.0.
Sequence (Q92918 whole entry): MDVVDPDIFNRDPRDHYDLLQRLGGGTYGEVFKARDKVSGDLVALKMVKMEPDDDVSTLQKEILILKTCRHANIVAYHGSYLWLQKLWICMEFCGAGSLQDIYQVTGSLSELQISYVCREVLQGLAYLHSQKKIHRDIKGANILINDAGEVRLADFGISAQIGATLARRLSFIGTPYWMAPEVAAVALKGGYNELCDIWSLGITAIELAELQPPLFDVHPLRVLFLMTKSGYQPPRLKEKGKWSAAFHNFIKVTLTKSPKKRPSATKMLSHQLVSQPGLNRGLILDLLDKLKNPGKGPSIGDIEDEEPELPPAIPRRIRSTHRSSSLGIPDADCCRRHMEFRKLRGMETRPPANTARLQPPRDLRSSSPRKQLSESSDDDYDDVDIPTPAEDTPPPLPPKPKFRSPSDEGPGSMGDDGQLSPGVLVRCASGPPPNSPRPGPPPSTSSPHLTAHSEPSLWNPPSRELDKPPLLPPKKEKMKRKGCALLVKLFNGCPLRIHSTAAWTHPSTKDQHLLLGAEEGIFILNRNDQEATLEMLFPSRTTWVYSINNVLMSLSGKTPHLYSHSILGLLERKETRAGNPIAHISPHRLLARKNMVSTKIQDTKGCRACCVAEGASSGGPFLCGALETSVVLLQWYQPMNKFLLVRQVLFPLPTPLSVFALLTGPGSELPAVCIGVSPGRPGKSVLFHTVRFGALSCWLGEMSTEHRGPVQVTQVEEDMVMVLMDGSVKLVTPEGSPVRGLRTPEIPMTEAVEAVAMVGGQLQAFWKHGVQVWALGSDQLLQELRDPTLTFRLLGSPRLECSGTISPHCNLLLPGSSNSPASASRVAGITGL

Structure (SMILES)	IC50
CCc1c(F)c(SC(C)C#N)c2[nH]ncc2c1-c1ccn2nc(NC(=O)[C@@H]3C[C@@H]3F)cc2c1 (some centres undefined)	< 100 nM
O=C(Nc1cc2cc(-c3c(Cl)c(F)c(CO)c4[nH]ncc34)ccn2n1)[C@@H]1C[C@@H]1F	< 100 nM
CS(=O)(=O)Cc1c(F)c(Cl)c(-c2ccc3nc(NC(=O)[C@@H]4C[C@@H]4F)cn3c2)c2cn[nH]c12	< 100 nM
O=C(Nc1cc2cc(-c3c(Cl)c(F)c(C(O)C(F)(F)F)c4[nH]ncc34)ccn2n1)[C@@H]1C[C@@H]1F (some centres undefined)	< 100 nM
COC(C)c1c(F)c(Cl)c(-c2ccc3nc(NC(=O)[C@@H]4C[C@@H]4F)cn3c2)c2cn[nH]c12 (some centres undefined)	< 100 nM
CC(=O)N(C)c1c(F)c(C)c(-c2ccc3nc(NC(=O)[C@@H]4C[C@@H]4F)sc3n2)c2cn[nH]c12	< 100 nM
Cn1ccnc1Sc1c(F)c(Cl)c(-c2ccc3nc(NC(=O)[C@@H]4C[C@@H]4F)cn3c2)c2cn[nH]c12	< 100 nM
O=C(Nc1cn2cc(-c3c(Br)c(F)cc4[nH]ncc34)ccc2n1)[C@@H]1C[C@@H]1F	< 100 nM
O=C(Nc1cn2cc(-c3c(Cl)c(F)c(-c4cc[nH]c4)c4[nH]ncc34)ccc2n1)[C@@H]1C[C@@H]1F	< 100 nM
O=C(Nc1cn2cc(-c3c(Cl)c(F)c(CO)c4[nH]ncc34)ccc2n1)[C@@H]1C[C@@H]1F	< 100 nM
COC(c1c(F)c(Cl)c(-c2ccc3nc(NC(=O)[C@@H]4C[C@@H]4F)cn3c2)c2cn[nH]c12)C(F)(F)F (some centres undefined)	< 100 nM
CC(=O)Nc1c(F)c(C)c(-c2ccn3nc(NC(=O)[C@@H]4C[C@@H]4F)cc3c2)c2cn[nH]c12	< 100 nM
Cc1c(F)c([S+](C)[O-])c2[nH]ncc2c1-c1ccn2nc(NC(=O)[C@@H]3C[C@@H]3F)cc2c1 (some centres undefined)	< 100 nM
CC(=O)N(C)c1c(F)c(C)c(-c2ccn3nc(NC(=O)[C@@H]4C[C@@H]4F)cc3c2)c2cn[nH]c12	< 100 nM
O=C(Nc1cn2cc(-c3c(Cl)c(F)c(NC4=NCCN4)c4[nH]ncc34)ccc2n1)[C@@H]1C[C@@H]1F	< 100 nM
CSc1c(F)c(C)c(-c2ccn3nc(NC(=O)[C@H]4C[C@@H]4F)cc3c2)c2cn[nH]c12	< 100 nM
CSC(C)c1c(F)c(Cl)c(-c2ccc3nc(NC(=O)[C@@H]4C[C@@H]4F)cn3c2)c2cn[nH]c12 (some centres undefined)	< 100 nM
CSc1c(F)c(C)c(-c2ccn3nc(NC(=O)[C@@H]4C[C@H]4F)cc3c2)c2cn[nH]c12	< 100 nM
CC(c1c(F)c(Cl)c(-c2ccc3nc(NC(=O)[C@@H]4C[C@@H]4F)cn3c2)c2cn[nH]c12)n1ncnn1 (some centres undefined)	< 100 nM
Cc1c(F)c(S(C)(=O)=O)c2[nH]ncc2c1-c1ccc2nc(NC(=O)[C@@H]3C[C@@H]3F)sc2n1	> 1000 nM
CCOC(c1c(F)c(Cl)c(-c2ccc3nc(NC(=O)[C@@H]4C[C@@H]4F)cn3c2)c2cn[nH]c12)C(F)(F)F (some centres undefined)	< 100 nM
C=Cc1c(F)cc2[nH]ncc2c1-c1ccc2nc(NC(=O)[C@@H]3C[C@@H]3F)sc2c1	< 100 nM
Cn1nccc1-c1c(F)c(Cl)c(-c2ccc3nc(NC(=O)[C@@H]4C[C@@H]4F)cn3c2)c2cn[nH]c12	< 100 nM
N#CC(NC=O)c1c(F)c(Cl)c(-c2ccc3nc(NC(=O)[C@@H]4C[C@@H]4F)cn3c2)c2cn[nH]c12 (some centres undefined)	< 100 nM
CCN(C)c1c(F)c(C)c(-c2ccc3nc(NC(=O)[C@@H]4C[C@@H]4F)sc3n2)c2cn[nH]c12	< 100 nM

The next lines start with the values.

IC50	Structure (SMILES)
< 100 nM	CSc1c(F)c(C)c(-c2ccn3nc(NC(=O)[C@H]4C[C@H]4F)cc3c2)c2cn[nH]c12
< 100 nM	CC(F)c1c(F)c(Cl)c(-c2ccc3nc(NC(=O)[C@@H]4C[C@@H]4F)cn3c2)c2cn[nH]c12 (some centres undefined)
< 100 nM	Cn1cccc1-c1c(F)c(Cl)c(-c2ccc3nc(NC(=O)[C@@H]4C[C@@H]4F)cn3c2)c2cn[nH]c12
< 100 nM	CC(=O)N(C)c1c(F)c(C)c(-c2ccc3nc(NC(=O)[C@@H]4C[C@@H]4F)cn3c2)c2cn[nH]c12
< 100 nM	N#Cc1c(F)c(Cl)c(-c2ccc3nc(NC(=O)[C@@H]4C[C@@H]4F)sc3c2)c2cn[nH]c12
< 100 nM	CC(Nc1c(F)c(Cl)c(-c2ccc3nc(NC(=O)[C@@H]4C[C@@H]4F)cn3c2)c2cn[nH]c12)C(=O)N(C)C (some centres undefined)
< 100 nM	CC(O)c1c(F)c(Cl)c(-c2ccc3nc(NC(=O)[C@@H]4C[C@@H]4F)cn3c2)c2cn[nH]c12 (some centres undefined)
< 100 nM	CSCc1c(F)c(Cl)c(-c2ccc3nc(NC(=O)[C@@H]4C[C@@H]4F)cn3c2)c2cn[nH]c12
< 100 nM	CCN(C)c1c(F)c(Cl)c(-c2ccc3nc(NC(=O)[C@@H]4C[C@@H]4F)sc3n2)c2cn[nH]c12
< 100 nM	CSc1c(F)c(C)c(-c2ccn3nc(NC(=O)C4CC4)cc3c2)c2cn[nH]c12
< 100 nM	O=C(Nc1cn2cc(-c3c(Cl)c(F)c(C(F)C(F)(F)F)c4[nH]ncc34)ccc2n1)[C@@H]1C[C@@H]1F (some centres undefined)
< 100 nM	O=C(Nc1cc2cc(-c3c(C(F)(F)F)c(F)cc4[nH]ncc34)ccn2n1)[C@@H]1C[C@@H]1F
< 100 nM	CCN(C)c1c(F)c(C)c(-c2ccc3nc(NC(=O)[C@@H]4C[C@@H]4F)sc3c2)c2cn[nH]c12
< 100 nM	C[S+]([O-])Cc1c(F)c(Cl)c(-c2ccc3nc(NC(=O)[C@@H]4C[C@@H]4F)cn3c2)c2cn[nH]c12 (some centres undefined)
< 100 nM	CCN(C)c1c(F)c(C)c(-c2ccc3nc(NC(=O)[C@@H]4C[C@@H]4F)cn3c2)c2cn[nH]c12
< 100 nM	CSc1c(F)c(SC)c2[nH]ncc2c1-c1ccc2nc(NC(=O)[C@@H]3C[C@@H]3F)sc2c1
< 100 nM	CSc1c(F)c(C)c(-c2ccc3nc(NC(=O)[C@@H]4C[C@@H]4F)sc3n2)c2cn[nH]c12
< 100 nM	O=C(Nc1cn2cc(-c3c(Cl)c(F)c(C(O)C(F)(F)F)c4[nH]ncc34)ccc2n1)[C@@H]1C[C@@H]1F (some centres undefined)
< 100 nM	Cn1ccc(-c2c(F)c(Cl)c(-c3ccc4nc(NC(=O)[C@@H]5C[C@@H]5F)cn4c3)c3cn[nH]c23)c1
< 100 nM	CNC(=O)CSc1c(F)c(Cl)c(-c2ccc3nc(NC(=O)[C@@H]4C[C@@H]4F)sc3c2)c2cn[nH]c12
< 100 nM	O=C(Nc1cn2cc(-c3c(Cl)c(F)c(CN4CCCC4)c4[nH]ncc34)ccc2n1)[C@@H]1C[C@@H]1F
< 100 nM	N#CCSc1c(F)c(Cl)c(-c2ccn3nc(NC(=O)[C@@H]4C[C@@H]4F)cc3c2)c2cn[nH]c12
< 100 nM	O=C(Nc1cn2cc(-c3c(Cl)c(F)c(NC4CCOC4)c4[nH]ncc34)ccc2n1)[C@@H]1C[C@@H]1F (some centres undefined)
< 100 nM	O=C(Nc1nc2ccc(-c3c(Cl)c(F)c(N4CCCC4)c4[nH]ncc34)cc2s1)[C@@H]1C[C@@H]1F
